Laboratory results reported in patent US9681664B2, “Macrocyclic picolinamides as fungicides” (Dow Agrosciences LLC, priority 2012, dated 2017).
Read-outs that look alike come from different tables or passages of the source.

Assays:
[1] = tested on: Mycosphaerella graminicola; Anamorph: Septoria tritici; test: Leaf blotch of wheat (SEPTTR) disease control on wheat seedlings; format: in vivo; conditions: Zymoseptoria tritici; for pest or weed control at 121.5 g/ha: low volume application, 121.5 g/H
How it was run: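 Wheat seedlings (Yuma, first leaf emerged) sprayed to run-off with compound in acetone/water with 110 ppm Triton X-100, or track-sprayed as EC with 0.1% Trycol 5941. Septoria tritici spores inoculated before or after treatment. Dew chambers, then 20 °C greenhouse. Percent disease control derived from severity (0–100%) relative to untreated plants.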

[2] = tested on: Puccinia triticina; Synonym: Puccinia recondite f. sp. tritici; test: Wheat brown rust (PUCCRT) disease control on wheat seedlings; format: in vivo; conditions: Puccinia triticina; for pest or weed control at 121.5 g/ha: low volume application, 121.5 g/H
How it was run: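 Acetone solutions diluted in nine volumes of water with 110 ppm Triton X-100 sprayed to run-off on first-leaf Yuma wheat seedlings (track spray: EC with 0.1% Trycol 5941). Puccinia triticina spores inoculated before or after treatment; overnight dark dew at 22° C., 100% RH, then greenhouse at 24° C. for disease development.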

[3] = 24 h, High volume application, 1 Day Protectant, read-out: SEPTTR 1DP disease control
[4] = 72 h, High volume application, 3 Day Curative, read-out: SEPTTR 3DC disease control
[5] = 24 h, High volume application, 1 Day Protectant, read-out: PUCCRT 1DP disease control
[6] = 72 h, High volume application, 3 Day Curative, read-out: PUCCRT 3DC disease control
[7] = 24 h, Wheat Leaf Blotch, 1 Day Protectant, high volume application, read-out: Disease Control SEPTTR 1 DP 100 ppm
[8] = 24 h, Wheat Leaf Blotch, 1 Day Protectant, read-out: Disease Control SEPTTR 1 DP 121.5 g/H
[9] = 72 h, Wheat Leaf Blotch, 3 Day Curative, high volume application, read-out: Disease Control SEPTTR 3 DC 100 ppm
[10] = 72 h, Wheat Leaf Blotch, 3 Day Curative, read-out: Disease Control SEPTTR 3 DC 121.5 g/H
[11] = 24 h, Wheat Brown Rust, 1 Day Protectant, high volume application, read-out: Disease Control PUCCRT 1 DP 100 ppm
[12] = 24 h, Wheat Brown Rust, 1 Day Protectant, read-out: Disease Control PUCCRT 1 DP 121.5 g/H
[13] = 72 h, Wheat Brown Rust, 3 Day Curative, high volume application, read-out: Disease Control PUCCRT 3 DC 100 ppm
[14] = 72 h, Wheat Brown Rust, 3 Day Curative, read-out: Disease Control PUCCRT 3 DC 121.5 g/H

| SMILES | pest or weed control at 100 ppm [1, 3] [%] | pest or weed control at 100 ppm [1, 4] [%] | pest or weed control at 100 ppm [2, 5] [%] | pest or weed control at 100 ppm [2, 6] [%] | pest or weed control at 100 ppm [1, 7] [%] | pest or weed control at 121.5 g/ha [1, 8] [%] | pest or weed control at 100 ppm [1, 9] [%] | pest or weed control at 121.5 g/ha [1, 10] [%] | pest or weed control at 100 ppm [2, 11] [%] | pest or weed control at 121.5 g/ha [2, 12] [%] | pest or weed control at 100 ppm [2, 13] [%] | pest or weed control at 121.5 g/ha [2, 14] [%] |
| --- | --- | --- | --- | --- | --- | --- | --- | --- | --- | --- | --- | --- |
| COc1ccnc(C(=O)N[C@H]2CCC[C@H](Oc3ccccc3)[C@@H](OCc3ccccc3)[C@H](C)OC2=O)c1O [F24] | 80 to 100 | 80 to 100 | 80 to 100 | 80 to 100 | – | – | – | – | – | – | – | – |
| COc1ccnc(C(=O)N[C@H]2CCC[C@H](OCc3ccccc3)[C@@H](Oc3ccccc3)[C@H](C)OC2=O)c1O [F23] | 80 to 100 | 80 to 100 | 80 to 100 | 80 to 100 | – | – | – | – | – | – | – | – |
| COc1ccnc(C(=O)N[C@H]2CCC[C@H](OC3CCCCC3)[C@@H](OCC(C)C)[C@H](C)OC2=O)c1O [F211] | 80 to 100 | 80 to 100 | 80 to 100 | 80 to 100 | – | – | – | – | – | – | – | – |
| COc1ccnc(C(=O)N[C@H]2CCC[C@H](OCC(C)C)[C@@H](OC(=O)C3CCCC3)[C@H](C)OC2=O)c1O [F149] | 80 to 100 | 0 to 80 | 80 to 100 | 80 to 100 | – | – | – | – | – | – | – | – |
| CCCO[C@H]1CCC[C@H](NC(=O)c2nccc(OC)c2OC(C)=O)C(=O)O[C@@H](C)[C@@H]1Oc1cccc(Cl)c1 [F286] | – | – | – | – | 80 to 100 | 80 to 100 | 80 to 100 | 80 to 100 | 80 to 100 | 80 to 100 | 80 to 100 | 0 to 80 |
| COc1ccnc(C(=O)N[C@H]2CCC[C@H](OCCCc3ccccc3)[C@@H](OCC(C)C)[C@H](C)OC2=O)c1OCOC(C)=O [F222] | 80 to 100 | 80 to 100 | 80 to 100 | 80 to 100 | – | – | – | – | – | – | – | – |
| COc1ccnc(C(=O)N[C@H]2CCC[C@H](OC3CCCC3)[C@@H](OCC(C)C)[C@H](C)OC2=O)c1OCOC(C)=O [F122] | 80 to 100 | 80 to 100 | 80 to 100 | 80 to 100 | – | – | – | – | – | – | – | – |
| COc1ccnc(C(=O)N[C@H]2CCC[C@H](OCC(C)C)[C@@H](OC3CCCC3)[C@H](C)OC2=O)c1O [F33] | 0 to 80 | 80 to 100 | 80 to 100 | 80 to 100 | – | – | – | – | – | – | – | – |
| CCCCCO[C@H]1[C@H](C)OC(=O)[C@@H](NC(=O)c2nccc(OC)c2O)CCC[C@@H]1Oc1ccccc1 [F94] | 0 to 80 | 0 to 80 | 0 to 80 | < 0 | – | – | – | – | – | – | – | – |
| CCCO[C@H]1[C@H](C)OC(=O)[C@@H](NC(=O)c2nccc(OC)c2OCOC(C)=O)CCC[C@@H]1OCCC [F116] | 80 to 100 | 80 to 100 | 80 to 100 | 80 to 100 | – | – | – | – | – | – | – | – |
| COc1ccnc(C(=O)N[C@H]2CCC[C@H](OCCCC(F)(F)F)[C@@H](OCCCC(F)(F)F)[C@H](C)OC2=O)c1O [F85] | < 0 | 0 to 80 | < 0 | 0 to 80 | – | – | – | – | – | – | – | – |
| COc1ccnc(C(=O)N[C@H]2CCC[C@H](Oc3ccc(C)cc3)[C@@H](Oc3ccc(C)cc3)[C@H](C)OC2=O)c1OCOC(C)=O [F115] | 80 to 100 | 0 to 80 | 80 to 100 | 0 to 80 | – | – | – | – | – | – | – | – |
| COc1ccnc(C(=O)N[C@H]2CCC[C@H](OCC(C)C)[C@@H](OCCCC(F)(F)F)[C@H](C)OC2=O)c1OCOC(=O)C(C)C [F51] | 80 to 100 | 80 to 100 | 80 to 100 | 80 to 100 | – | – | – | – | – | – | – | – |
| COc1ccnc(C(=O)N[C@H]2CCC[C@H](OCc3ccccc3)[C@@H](OCc3ccccc3)[C@H](C)OC2=O)c1O [F22] | 80 to 100 | 80 to 100 | 80 to 100 | 80 to 100 | – | – | – | – | – | – | – | – |
| COc1ccnc(C(=O)N[C@H]2CCC[C@H](OCC(C)C)[C@@H](Oc3ccc(C)cc3)[C@H](C)OC2=O)c1OC(C)=O [F92] | 80 to 100 | 80 to 100 | 80 to 100 | 80 to 100 | – | – | – | – | – | – | – | – |
| COc1ccnc(C(=O)N[C@H]2CCC[C@H](OC3CCCC3)[C@@H](OC(=O)C3CC3)[C@H](C)OC2=O)c1OCOC(=O)C(C)C [F145] | 80 to 100 | 80 to 100 | 80 to 100 | 80 to 100 | – | – | – | – | – | – | – | – |
| COCCC(=O)Oc1c(OC)ccnc1C(=O)N[C@H]1CCC[C@H](Oc2ccccc2)[C@@H](OC)[C@H](C)OC1=O [F260] | – | – | – | – | – | 0 to 80 | – | 80 to 100 | – | 80 to 100 | – | 80 to 100 |
| COc1ccnc(C(=O)N[C@H]2CCC[C@H](OCC3CC3)[C@@H](OCC3CC3)[C@H](C)OC2=O)c1O [F117] | < 0 | 80 to 100 | 80 to 100 | 80 to 100 | – | – | – | – | – | – | – | – |
| COc1ccnc(C(=O)N[C@H]2CCC[C@H](Oc3ccccc3)[C@@H](OC(=O)C3CC3)[C@H](C)OC2=O)c1OCOC(C)=O [F240] | – | – | – | – | 80 to 100 | 80 to 100 | 80 to 100 | 80 to 100 | 80 to 100 | 80 to 100 | 80 to 100 | 80 to 100 |
| CCCO[C@H]1[C@H](C)OC(=O)[C@@H](NC(=O)c2nccc(OC)c2OCOC(C)=O)CCC[C@@H]1OC1CCCC1 [F121] | 80 to 100 | 80 to 100 | 80 to 100 | 80 to 100 | – | – | – | – | – | – | – | – |
| CCCO[C@H]1CCC[C@H](NC(=O)c2nccc(OC)c2OC(C)=O)C(=O)O[C@@H](C)[C@@H]1Oc1ccc(-c2ccccc2)cc1 [F287] | – | – | – | – | 80 to 100 | 80 to 100 | 80 to 100 | 80 to 100 | 80 to 100 | 80 to 100 | 80 to 100 | 80 to 100 |
| COCCC(=O)Oc1c(OC)ccnc1C(=O)N[C@H]1CCC[C@H](OC2CCCC2)[C@@H](OCC(C)C)[C@H](C)OC1=O [F146] | 80 to 100 | 80 to 100 | 80 to 100 | 80 to 100 | – | – | – | – | – | – | – | – |
| CCCO[C@H]1[C@H](C)OC(=O)[C@@H](NC(=O)c2nccc(OC)c2O)CCC[C@@H]1Oc1cccc(F)c1 [F280] | – | – | – | – | 80 to 100 | – | 80 to 100 | – | 80 to 100 | – | 0 to 80 | – |
| CCCCCO[C@H]1[C@H](C)OC(=O)[C@@H](NC(=O)c2nccc(OC)c2OCOC(C)=O)CCC[C@@H]1Oc1ccccc1 [F96] | 80 to 100 | 80 to 100 | 80 to 100 | 80 to 100 | – | – | – | – | – | – | – | – |
| CCCO[C@H]1CCC[C@H](NC(=O)c2nccc(OC)c2OCOC(C)=O)C(=O)O[C@@H](C)[C@@H]1Oc1ccc(F)cc1 [F265] | – | – | – | – | 80 to 100 | 80 to 100 | 80 to 100 | – | 80 to 100 | 80 to 100 | 80 to 100 | 0 to 80 |
| COc1ccnc(C(=O)N[C@H]2CCC[C@H](OC3CCCC3)[C@@H](Oc3ccccc3)[C@H](C)OC2=O)c1O [F74] | 80 to 100 | 80 to 100 | 80 to 100 | 80 to 100 | – | – | – | – | – | – | – | – |
| COc1ccc(O[C@H]2CCC[C@H](NC(=O)c3nccc(OC)c3O)C(=O)O[C@@H](C)[C@@H]2OC2CCCC2)cc1 [F167] | 80 to 100 | 80 to 100 | 80 to 100 | 80 to 100 | – | – | – | – | – | – | – | – |
| C=C(C)CO[C@H]1CCC[C@H](NC(=O)c2nccc(OC)c2OC(C)=O)C(=O)O[C@@H](C)[C@@H]1OC [F256] | – | – | – | – | – | < 0 | – | 0 to 80 | – | 0 to 80 | – | 80 to 100 |
| CCCO[C@H]1[C@H](C)OC(=O)[C@@H](NC(=O)c2nccc(OC)c2OCOC(=O)C(C)C)CCC[C@@H]1Oc1ccccc1 [F97] | 80 to 100 | 80 to 100 | 80 to 100 | 80 to 100 | – | – | – | – | – | – | – | – |
